Where a name gives a salt, the structure may show the parent alone.
Tests used:
Conditions in all cases: exposure time: 72 h
FT3469 [1] = normal neural stem cell line; experiment: surviving fraction (nuclei count normalised to DMSO); higher = more cells surviving (less toxic)
E13 [2] = patient-derived glioblastoma stem cells of classical subtype; experiment: as above
E57 [3] = patient-derived glioblastoma stem cells of mesenchymal subtype; experiment: as above
E28 [4] = patient-derived glioblastoma stem cells of classical subtype; experiment: as above
E34 [5] = patient-derived glioblastoma stem cells of proneural subtype; experiment: as above
E21 [6] = patient-derived glioblastoma stem cells of mesenchymal subtype; experiment: as above
E31 [7] = patient-derived glioblastoma stem cells of proneural subtype; experiment: as above
FT3469 [8] = experiment: phenotypic distance (Euclidean, principal components) from DMSO controls (arbitrary units); higher = stronger morphological change
E13 [9] = experiment: as above
E57 [10] = experiment: as above
E28 [11] = experiment: as above
E34 [12] = experiment: as above
E21 [13] = experiment: as above
E31 [14] = experiment: as above
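Throughout, for phenotypic distance (Euclidean, principal components) from DMSO controls: cell Painting imaging in 384-well plates, CellProfiler features reduced to at least 20 principal components, Euclidean distance versus same-plate DMSO vehicle wells (0.1% v/v), median over six images per well.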
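Throughout, for surviving fraction (nuclei count normalised to DMSO): nuclei counted by high-content imaging of Hoechst-stained cells in laminin-coated 384-well plates, relative to 0.1% DMSO vehicle wells, with staurosporine as cell-death control.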

CCCCCCCCCCCCCCCC[N+](C)(C)CCN(Cc1ccc(OC)cc1)c1ncccn1 [Thonzonium bromide]
Conditions | phenotypic distance | surviving fraction
E13 [2], 4.1 nM | – | 1.04
E13 [2], 12.3 nM | – | 0.969
E13 [2], 37 nM | – | 0.906
E13 [2], 111.1 nM | – | 0.816
E13 [2], 333.3 nM | – | 0.606
E13 [2], 1000 nM | – | 0.555
E13 [2], 3000 nM | – | 0.19
E13 [9], 4.1 nM | 0.516 | –
E13 [9], 12.3 nM | 0.581 | –
E13 [9], 37 nM | 0.657 | –
E13 [9], 111.1 nM | 1.02 | –
E13 [9], 333.3 nM | 1.87 | –
E13 [9], 1000 nM | 1.97 | –
E13 [9], 3000 nM | 5.26 | –
E21 [6], 4.1 nM | – | 0.966
E21 [6], 12.3 nM | – | 1.03
E21 [6], 37 nM | – | 1.03
E21 [6], 111.1 nM | – | 0.987
E21 [6], 333.3 nM | – | 0.962
E21 [6], 1000 nM | – | 0.854
E21 [6], 3000 nM | – | 0.00843
E21 [13], 4.1 nM | 0.872 | –
E21 [13], 12.3 nM | 0.488 | –
E21 [13], 37 nM | 0.498 | –
E21 [13], 111.1 nM | 0.528 | –
E21 [13], 333.3 nM | 1.11 | –
E21 [13], 1000 nM | 1.7 | –
E21 [13], 3000 nM | 15.4 | –
E28 [4], 4.1 nM | – | 1.08
E28 [4], 12.3 nM | – | 0.936
E28 [4], 37 nM | – | 1.09
E28 [4], 111.1 nM | – | 1.01
E28 [4], 333.3 nM | – | 0.814
E28 [4], 1000 nM | – | 0.696
E28 [4], 3000 nM | – | 0.00389
E28 [11], 4.1 nM | 0.34 | –
E28 [11], 12.3 nM | 0.451 | –
E28 [11], 37 nM | 0.622 | –
E28 [11], 111.1 nM | 1.04 | –
E28 [11], 333.3 nM | 0.781 | –
E28 [11], 1000 nM | 1.5 | –
E28 [11], 3000 nM | 13.5 | –
E31 [7], 4.1 nM | – | 1.16
E31 [7], 12.3 nM | – | 1.1
E31 [7], 37 nM | – | 1.09
E31 [7], 111.1 nM | – | 0.966
E31 [7], 333.3 nM | – | 0.882
E31 [7], 1000 nM | – | 0.731
E31 [7], 3000 nM | – | 0.034
E31 [14], 4.1 nM | 0.672 | –
E31 [14], 12.3 nM | 0.609 | –
E31 [14], 37 nM | 0.797 | –
E31 [14], 111.1 nM | 1.23 | –
E31 [14], 333.3 nM | 1.32 | –
E31 [14], 1000 nM | 1.09 | –
E31 [14], 3000 nM | 9.07 | –
E34 [5], 4.1 nM | – | 1.03
E34 [5], 12.3 nM | – | 0.954
E34 [5], 37 nM | – | 1.04
E34 [5], 111.1 nM | – | 0.965
E34 [5], 333.3 nM | – | 0.876
E34 [5], 1000 nM | – | 0.699
E34 [5], 3000 nM | – | 0.0452
E34 [12], 4.1 nM | 0.779 | –
E34 [12], 12.3 nM | 0.535 | –
E34 [12], 37 nM | 0.676 | –
E34 [12], 111.1 nM | 0.729 | –
E34 [12], 333.3 nM | 1.9 | –
E34 [12], 1000 nM | 1.38 | –
E34 [12], 3000 nM | 10.2 | –
E57 [3], 4.1 nM | – | 0.925
E57 [3], 12.3 nM | – | 1.04
E57 [3], 37 nM | – | 1.04
E57 [3], 111.1 nM | – | 1.04
E57 [3], 333.3 nM | – | 1.13
E57 [3], 1000 nM | – | 1.01
E57 [3], 3000 nM | – | 0.00426
E57 [10], 4.1 nM | 0.446 | –
E57 [10], 12.3 nM | 0.566 | –
E57 [10], 37 nM | 0.663 | –
E57 [10], 111.1 nM | 1.07 | –
E57 [10], 333.3 nM | 1.33 | –
E57 [10], 1000 nM | 1.72 | –
E57 [10], 3000 nM | 9.5 | –
FT3469 [1], 4.1 nM | – | 0.999
FT3469 [1], 12.3 nM | – | 0.934
FT3469 [1], 37 nM | – | 0.968
FT3469 [1], 111.1 nM | – | 0.955
FT3469 [1], 333.3 nM | – | 0.924
FT3469 [1], 1000 nM | – | 0.859
FT3469 [1], 3000 nM | – | 0.00702
FT3469 [8], 4.1 nM | 0.743 | –
FT3469 [8], 12.3 nM | 3.16 | –
FT3469 [8], 37 nM | 0.638 | –
FT3469 [8], 111.1 nM | 0.6 | –
FT3469 [8], 333.3 nM | 0.582 | –
FT3469 [8], 1000 nM | 0.946 | –
FT3469 [8], 3000 nM | 11.4 | –

C=CC(=O)Nc1cc(Nc2nccc(-c3cn(C)c4ccccc34)n2)c(OC)cc1N(C)CCN(C)C [Osimertinib mesylate]
Conditions | phenotypic distance | surviving fraction
E13 [2], 4.1 nM | – | 0.883
E13 [2], 12.3 nM | – | 1
E13 [2], 37 nM | – | 0.978
E13 [2], 111.1 nM | – | 0.951
E13 [2], 333.3 nM | – | 1.03
E13 [2], 1000 nM | – | 0.935
E13 [2], 3000 nM | – | 0.547
E13 [9], 4.1 nM | 0.974 | –
E13 [9], 12.3 nM | 0.598 | –
E13 [9], 37 nM | 0.826 | –
E13 [9], 111.1 nM | 0.647 | –
E13 [9], 333.3 nM | 1.84 | –
E13 [9], 1000 nM | 1.28 | –
E13 [9], 3000 nM | 2.96 | –
E21 [6], 4.1 nM | – | 1.11
E21 [6], 12.3 nM | – | 0.955
E21 [6], 37 nM | – | 0.892
E21 [6], 111.1 nM | – | 1.05
E21 [6], 333.3 nM | – | 0.931
E21 [6], 1000 nM | – | 0.909
E21 [6], 3000 nM | – | 0.455
E21 [13], 4.1 nM | 0.814 | –
E21 [13], 12.3 nM | 0.422 | –
E21 [13], 37 nM | 1.04 | –
E21 [13], 111.1 nM | 0.922 | –
E21 [13], 333.3 nM | 1.1 | –
E21 [13], 1000 nM | 1.12 | –
E21 [13], 3000 nM | 4.6 | –
E28 [4], 4.1 nM | – | 0.973
E28 [4], 12.3 nM | – | 1.04
E28 [4], 37 nM | – | 0.86
E28 [4], 111.1 nM | – | 1.01
E28 [4], 333.3 nM | – | 0.864
E28 [4], 1000 nM | – | 0.922
E28 [4], 3000 nM | – | 0.496
E28 [11], 4.1 nM | 0.567 | –
E28 [11], 12.3 nM | 0.684 | –
E28 [11], 37 nM | 0.633 | –
E28 [11], 111.1 nM | 1.15 | –
E28 [11], 333.3 nM | 0.864 | –
E28 [11], 1000 nM | 1.16 | –
E28 [11], 3000 nM | 2.16 | –
E31 [7], 4.1 nM | – | 0.963
E31 [7], 12.3 nM | – | 0.947
E31 [7], 37 nM | – | 1.02
E31 [7], 111.1 nM | – | 0.92
E31 [7], 333.3 nM | – | 0.743
E31 [7], 1000 nM | – | 0.773
E31 [7], 3000 nM | – | 0.435
E31 [14], 4.1 nM | 0.452 | –
E31 [14], 12.3 nM | 0.55 | –
E31 [14], 37 nM | 1.12 | –
E31 [14], 111.1 nM | 0.652 | –
E31 [14], 333.3 nM | 0.826 | –
E31 [14], 1000 nM | 1.22 | –
E31 [14], 3000 nM | 2.48 | –
E34 [5], 4.1 nM | – | 0.904
E34 [5], 12.3 nM | – | 0.975
E34 [5], 37 nM | – | 0.973
E34 [5], 111.1 nM | – | 0.878
E34 [5], 333.3 nM | – | 1.13
E34 [5], 1000 nM | – | 0.996
E34 [5], 3000 nM | – | 0.702
E34 [12], 4.1 nM | 0.472 | –
E34 [12], 12.3 nM | 0.514 | –
E34 [12], 37 nM | 0.843 | –
E34 [12], 111.1 nM | 0.747 | –
E34 [12], 333.3 nM | 1.66 | –
E34 [12], 1000 nM | 0.95 | –
E34 [12], 3000 nM | 1.31 | –
E57 [3], 4.1 nM | – | 0.979
E57 [3], 12.3 nM | – | 0.953
E57 [3], 37 nM | – | 0.84
E57 [3], 111.1 nM | – | 0.864
E57 [3], 333.3 nM | – | 0.875
E57 [3], 1000 nM | – | 0.79
E57 [3], 3000 nM | – | 0.547
E57 [10], 4.1 nM | 0.541 | –
E57 [10], 12.3 nM | 0.746 | –
E57 [10], 37 nM | 0.59 | –
E57 [10], 111.1 nM | 1.02 | –
E57 [10], 333.3 nM | 1.3 | –
E57 [10], 1000 nM | 1.38 | –
E57 [10], 3000 nM | 3.02 | –
FT3469 [1], 4.1 nM | – | 0.963
FT3469 [1], 12.3 nM | – | 0.989
FT3469 [1], 37 nM | – | 1.02
FT3469 [1], 111.1 nM | – | 1.03
FT3469 [1], 333.3 nM | – | 0.843
FT3469 [1], 1000 nM | – | 1.07
FT3469 [1], 3000 nM | – | 0.638
FT3469 [8], 4.1 nM | 0.624 | –
FT3469 [8], 12.3 nM | 0.753 | –
FT3469 [8], 37 nM | 0.623 | –
FT3469 [8], 111.1 nM | 0.801 | –
FT3469 [8], 333.3 nM | 0.702 | –
FT3469 [8], 1000 nM | 1.37 | –
FT3469 [8], 3000 nM | 1.12 | –

From the supplement of paper PMC13207355
